One data set concerns the target T1, hGIPR (Homo sapiens, UniProt P48546).
T1 construct: expressed in transfected cells; host or cells: CHO CRE-luciferase reporter cells
T1 sequence (P48546 22-466): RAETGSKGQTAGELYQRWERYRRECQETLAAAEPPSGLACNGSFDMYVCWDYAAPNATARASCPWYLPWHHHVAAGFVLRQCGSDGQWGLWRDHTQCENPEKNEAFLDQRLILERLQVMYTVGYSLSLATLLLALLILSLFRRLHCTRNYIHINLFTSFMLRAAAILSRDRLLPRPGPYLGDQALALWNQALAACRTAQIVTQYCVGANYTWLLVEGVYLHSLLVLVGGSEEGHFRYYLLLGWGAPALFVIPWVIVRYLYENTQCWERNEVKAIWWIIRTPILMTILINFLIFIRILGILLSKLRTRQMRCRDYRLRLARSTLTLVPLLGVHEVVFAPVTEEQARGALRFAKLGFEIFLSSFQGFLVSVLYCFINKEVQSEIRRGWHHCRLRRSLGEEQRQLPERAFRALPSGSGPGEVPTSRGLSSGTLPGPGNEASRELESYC
As to the kind of experiment: hGIPR CreLuc assay in 0.5% and 100% plasma (CHO CRE-luciferase reporter cells). The class given is cell-based. As to conditions: 0.5% human plasma, read-out: hGIPR 0.5% hP.

The target in the next data set is T2, hNPY2R (Homo sapiens, UniProt P49146).
T2 construct: expressed in transfected cells; host or cells: HEK-293 CRE-luciferase reporter cells
T2 sequence (P49146 1-381): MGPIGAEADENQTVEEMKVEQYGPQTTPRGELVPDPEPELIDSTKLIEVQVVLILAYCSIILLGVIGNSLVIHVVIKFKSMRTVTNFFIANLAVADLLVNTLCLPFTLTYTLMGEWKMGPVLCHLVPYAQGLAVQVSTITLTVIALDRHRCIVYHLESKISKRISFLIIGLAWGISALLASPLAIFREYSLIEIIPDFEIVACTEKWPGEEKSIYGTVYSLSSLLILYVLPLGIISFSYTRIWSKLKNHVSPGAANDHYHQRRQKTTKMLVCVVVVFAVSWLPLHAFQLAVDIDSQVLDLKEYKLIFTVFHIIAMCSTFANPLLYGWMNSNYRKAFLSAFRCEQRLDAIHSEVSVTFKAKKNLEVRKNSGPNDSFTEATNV
Put plainly: hNPY2R CreLuc assay in 0.5% and 100% plasma (HEK-293 CRE-luciferase reporter cells). It is filed as cell-based. The note with it: HEK-293 reporter cells. An excerpt:
CHO and HEK-293 recombinant cell lines express a luciferase reporter gene under control of the CAMP responsive element (CRE). As a second recombinant protein the GLP-1 and NPY2 receptors were expressed in the reporter gene HEK cells, and the GIP receptor was expressed in the reporter gene CHO cells, respectively. Stimulation of these recombinant cells with an agonist leads to an increase of intracellular CAMP levels. In the presence of CAMP, the transcription factor CRE binding protein (CREB) binds to the CRE and to the CREB binding protein (CBP), which leads to transcription of the luciferase reporter gene. Peptides upon serial-dilution in 100% DMSO were transferred into 384-well assay plates with 5 μl pre-dispensed assay buffer (1×HBSS, 20 mM HEPES, pH7.4 supplemented with 0.5% human plasma) using acoustic dispensing on a Labcyte ECHO. Cryo-preserved transgenic reporter gene cells were thawed in assay buffer. 20 μl (10.000 cells/well) were added to the plate with the peptides and incubated for 4 hours at 37° C. in a humidified incubator. Following incubation, assay plates are equilibrated to room temperature, followed by addition of 25 μl of Bright-Glo™ Luciferase reagent, incubation at room temperature for 10 minutes and analysis of luminescence (Envision Reader). […] EC50 values were calculated by non-linear regression using sigmoid concentration-response with variable slope.
The same assays were run in the presence of 100% plasma with no additional buffer constituents.
In general terms: A reporter such as luciferase makes a cellular process visible.

The nature of data set [1]: Solubility in 0.1 M phosphate buffer at pH 7. The note with it: 0.1 M phosphate buffer at pH 7, 10 mg/mL final peptide concentration, shaking 2 hours at room temperature, peptides as TFA-salts; measured sample pH 6.5-7.0. It is filed as physicochemical.
[2] abbreviates: 0.5% human plasma, read-out: hNPY2R 0.5% hP.

pEC50: −log10 of the molar value. Where two headings read alike, the source gives them in different places.

Broadly, the solubility is the dissolved amount per volume that the medium holds. `CC[C@H](C)[C@H](NC(=O)[C@H](CO)NC(=O)[C@H](Cc1ccc(O)cc1)NC(=O)[C@H](CC(=O)O)NC(=O)[C@H](CO)NC(=O)[C@@H](NC(=O)[C@H](Cc1ccccc1)NC(=O)[C@@H](NC(=O)CNC(=O)[C@H](CCC(=O)O)NC(=O)C(C)(C)NC(=O)[C@@H](N)Cc1ccc(O)cc1)[C@@H](C)O)[C@@H](C)O)C(=O)N[C@@H](C)C(=O)N[C@@H](CC(C)C)C(=O)N[C@@H](CCC(=O)O)C(=O)N[C@@H](CCCCN)C(=O)N[C@@H](CCC(N)=O)C(=O)N[C@@H](C)C(=O)N[C@@H](CCC(N)=O)C(=O)NC(C)(C)C(=O)N[C@@H](C)C(=O)N[C@@H](Cc1ccccc1)C(=O)N[C@H](C(=O)N[C@@H](CCCNC(=N)N)C(=O)N[C@@H](Cc1c[nH]cn1)C(=O)N[C@@H](CC(C)C)C(=O)N[C@H](C(=O)N[C@@H](CC(N)=O)C(=O)N[C@@H](CCCCNC(=O)CC[C@H](NC(=O)CC[C@H](NC(=O)CC[C@H](NC(=O)CC[C@H](NC(=O)CC[C@H](NC(=O)CC[C@H](NC(=O)CCCCCCCCCCCCCCCCCCC(=O)O)C(=O)O)C(=O)O)C(=O)O)C(=O)O)C(=O)O)C(=O)O)C(=O)NC(C)(C)C(=O)N[C@H](C(=O)N[C@@H](CCCNC(=N)N)C(=O)N[C@@H](CCC(N)=O)C(=O)N[C@@H](CCCNC(=N)N)C(=O)N[C@@H](Cc1ccc(O)cc1)C(N)=O)[C@@H](C)O)[C@@H](C)CC)C(C)C` [Compound 29, Y-Aib-E-G-T-F-T-S-D-Y-S-I-A-L-E-K-Q-A-Q-Aib-A-F-V-R-H-L-I-N-K(1,3)-Aib-T-R-Q-R-Y-NH2.C20DA-gGlu-gGlu-gGlu-gGlu-gGlu-gGlu(1,2)]: the values for the pEC50 on hGIPR and at hNPY2R (setting [2]) were 9.10 and 7.38, respectively. For the same molecule, the solubility at 2 h in data set [1] was found to be 10000 µg/mL.
Consider `CC[C@H](C)[C@H](NC(=O)[C@H](CC(C)C)NC(=O)[C@H](Cc1c[nH]cn1)NC(=O)[C@H](CCCNC(=N)N)NC(=O)[C@@H](NC(=O)[C@H](Cc1ccccc1)NC(=O)[C@H](C)NC(=O)C(C)(C)NC(=O)[C@H](CCC(N)=O)NC(=O)[C@H](C)NC(=O)[C@H](CCC(N)=O)NC(=O)[C@H](CCCCN)NC(=O)[C@H](CCC(=O)O)NC(=O)[C@H](CC(C)C)NC(=O)C(C)(C)NC(=O)[C@@H](NC(=O)[C@H](CO)NC(=O)[C@H](Cc1ccc(O)cc1)NC(=O)[C@H](CC(=O)O)NC(=O)[C@H](CO)NC(=O)[C@@H](NC(=O)[C@H](Cc1ccccc1)NC(=O)[C@@H](NC(=O)CNC(=O)[C@H](CCC(=O)O)NC(=O)C(C)(C)NC(=O)[C@@H](N)Cc1ccc(O)cc1)[C@@H](C)O)[C@@H](C)O)[C@@H](C)CC)C(C)C)C(=O)N[C@@H](CC(N)=O)C(=O)N[C@@H](CCCCNC(=O)CC[C@H](NC(=O)CC[C@H](NC(=O)CC[C@H](NC(=O)CC[C@H](NC(=O)CC[C@H](NC(=O)CC[C@H](NC(=O)[C@H]1CC[C@H](CNC(=O)CCCCCCCCCCCCCCCCC(=O)O)CC1)C(=O)O)C(=O)O)C(=O)O)C(=O)O)C(=O)O)C(=O)O)C(=O)NC(C)(C)C(=O)N[C@H](C(=O)N[C@@H](CCCNC(=N)N)C(=O)N[C@@H](CCC(N)=O)C(=O)N[C@@H](CCCNC(=N)N)C(=O)N[C@@H](Cc1ccc(O)cc1)C(N)=O)[C@@H](C)O` [Compound 31, Y-Aib-E-G-T-F-T-S-D-Y-S-I-Aib-L-E-K-Q-A-Q-Aib-A-F-V-R-H-L-I-N-K(1,3)-Aib-T-R-Q-R-Y-NH2.C18DA-TRX-gGlu-gGlu-gGlu-gGlu-gGlu-gGlu(1,2)], for which the pEC50 on hGIPR is 9.22; at hNPY2R (100% human plasma, read-out: hNPY2R 100% hP) it was 6.88. For the same molecule, the solubility at 2 h in data set [1] is 4300 µg/mL.
For orientation: EC50 means the concentration at which the effect is half-maximal. A low value points to higher potency in that assay. Regarding `CC[C@H](C)[C@H](NC(=O)[C@H](CO)NC(=O)[C@H](Cc1ccc(O)cc1)NC(=O)[C@H](CC(=O)O)NC(=O)[C@H](CO)NC(=O)[C@@H](NC(=O)[C@H](Cc1ccccc1)NC(=O)[C@@H](NC(=O)CNC(=O)[C@H](CCC(=O)O)NC(=O)C(C)(C)NC(=O)[C@@H](N)Cc1ccc(O)cc1)[C@@H](C)O)[C@@H](C)O)C(=O)NC(C)(C)C(=O)N[C@@H](CC(C)C)C(=O)N[C@@H](CCC(=O)O)C(=O)N[C@@H](CCCCN)C(=O)N[C@@H](CCC(N)=O)C(=O)N[C@@H](C)C(=O)N[C@@H](CCC(N)=O)C(=O)NC(C)(C)C(=O)N[C@@H](C)C(=O)N[C@@H](Cc1ccccc1)C(=O)N[C@H](C(=O)N[C@@H](CCCNC(=N)N)C(=O)N[C@@H](Cc1c[nH]cn1)C(=O)N[C@@H](CC(C)C)C(=O)N[C@@H](Cc1ccc(O)cc1)C(=O)N[C@@H](CC(N)=O)C(=O)N[C@@H](CCCCNC(=O)[C@@H](N)CCCCNC(=O)CC[C@H](NC(=O)CC[C@H](NC(=O)CC[C@H](NC(=O)CC[C@H](NC(=O)CC[C@H](NC(=O)CC[C@H](NC(=O)CCCCCCCCCCCCCCCCC(=O)O)C(=O)O)C(=O)O)C(=O)O)C(=O)O)C(=O)O)C(=O)O)C(=O)NC(C)(C)C(=O)N[C@H](C(=O)N[C@@H](CCCNC(=N)N)C(=O)N[C@@H](CCC(N)=O)C(=O)N[C@@H](CCCNC(=N)N)C(=O)N[C@@H](Cc1ccc(O)cc1)C(N)=O)[C@@H](C)O)C(C)C` [Compound 58, Y-Aib-E-G-T-F-T-S-D-Y-S-I-Aib-L-E-K-Q-A-Q-Aib-A-F-V-R-H-L-Y-N-K(1,3)-Aib-T-R-Q-R-Y-NH2.C18DA-gGlu-gGlu-gGlu-gGlu-gGlu-gGlu-eLys(1,2)], a half-maximal effect on hNPY2R (hNPY2R 100% hP (nM), 100% human plasma) (EC50) was put at 40 nM. Also, in data set [1], the solubility at 2 h was 3300 µg/mL.
Consider `CC[C@H](C)[C@H](NC(=O)[C@H](CC(C)C)NC(=O)[C@H](Cc1c[nH]cn1)NC(=O)[C@H](CCCNC(=N)N)NC(=O)[C@@H](NC(=O)[C@H](Cc1ccccc1)NC(=O)[C@H](C)NC(=O)C(C)(C)NC(=O)[C@H](CCC(N)=O)NC(=O)[C@H](C)NC(=O)[C@H](CCC(N)=O)NC(=O)[C@H](CCCNC(=N)N)NC(=O)[C@H](CCC(=O)O)NC(=O)[C@H](CC(C)C)NC(=O)C(C)(C)NC(=O)[C@@H](NC(=O)[C@H](CO)NC(=O)[C@H](Cc1ccc(O)cc1)NC(=O)[C@H](CC(=O)O)NC(=O)[C@H](CO)NC(=O)[C@@H](NC(=O)[C@H](Cc1ccccc1)NC(=O)[C@@H](NC(=O)CNC(=O)[C@H](CCC(=O)O)NC(=O)C(C)(C)NC(=O)[C@@H](N)Cc1ccc(O)cc1)[C@@H](C)O)[C@@H](C)O)[C@@H](C)CC)C(C)C)C(=O)N[C@@H](CC(N)=O)C(=O)N[C@@H](CCCCNC(=O)[C@@H](N)CCCCNC(=O)CC[C@H](NC(=O)CC[C@H](NC(=O)CC[C@H](NC(=O)CC[C@H](NC(=O)CC[C@H](NC(=O)CC[C@H](NC(=O)CCCCCCCCCCCCCCCCCCC(=O)O)C(=O)O)C(=O)O)C(=O)O)C(=O)O)C(=O)O)C(=O)O)C(=O)NC(C)(C)C(=O)N[C@H](C(=O)N[C@@H](CCCNC(=N)N)C(=O)N[C@@H](CCC(N)=O)C(=O)N[C@@H](CCCNC(=N)N)C(=O)N[C@@H](Cc1ccc(O)cc1)C(N)=O)[C@@H](C)O` [Compound 171, Y-Aib-E-G-T-F-T-S-D-Y-S-I-Aib-L-E-R-Q-A-Q-Aib-A-F-V-R-H-L-I-N-K(1,3)-Aib-T-R-Q-R-Y-NH2.C20DA-gGlu-gGlu-gGlu-gGlu-gGlu-gGlu-eLys(1,2)], for which the values for the pEC50 on hGIPR and on hNPY2R (setting [2]) were 9.40 and 8.00, respectively.

(Values after patent US20250382344A1, “Soluble GLP1/GIP/NPY2 Receptor Triple Agonists” (Boehringer Ingelheim International GmH, priority 2024, published 2025).)
